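How tested: cells in 96-well plates exposed to compound for 48 hours at five concentrations. Here, GI50 denotes the concentration required for 50% inhibition of growth. TGI denotes the concentration required for complete inhibition of growth.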
What was measured:
Assay in all cases: NCI-60 cell line screen, 48 h
[1] = test system: SF-539 CNS
[2] = test system: MOLT-4 leukemia
[3] = test system: SK-MEL-2 melanoma
[4] = test system: DU-145 prostate
[5] = test system: BT-549 breast
[6] = test system: MCF7 breast
[7] = test system: A498 renal
[8] = test system: HCT-116 colon
[9] = test system: OVCAR-3 ovarian
[10] = test system: MDA-MB-435

| Structure (SMILES) | GI50 [1] [µM] | TGI [1] [µM] | GI50 [2] [µM] | TGI [2] [µM] | GI50 [3] [µM] | TGI [3] [µM] | GI50 [4] [µM] | TGI [4] [µM] | GI50 [5] [µM] | TGI [5] [µM] | GI50 [6] [µM] | TGI [6] [µM] | GI50 [7] [µM] | TGI [7] [µM] | GI50 [8] [µM] | TGI [8] [µM] | GI50 [9] [µM] | TGI [9] [µM] | GI50 [10] [µM] | TGI [10] [µM] |
| --- | --- | --- | --- | --- | --- | --- | --- | --- | --- | --- | --- | --- | --- | --- | --- | --- | --- | --- | --- | --- |
| Cc1cc2c(cc1Cl)SC(N(N(C)C)S(=O)(=O)c1ccc(Cl)cc1)=NS2(=O)=O | 18.2 | 45.8 | 35 | > 100 | 20.1 | 66.6 | 27.8 | 99.4 | 19.4 | 48.7 | 12.6 | 48.3 | 15.8 | 37.6 | 23.6 | 71.1 | 24 | 61.6 | 33.2 | > 100 |
| Nc1ncnc2n[nH]c(Nc3ccc(F)cc3)c12 | 23.6 | > 100 | 31.7 | > 100 | 14 | > 100 | 9.33 | 42.1 | 56.7 | > 100 | 27.7 | 89.3 | 8.33 | 92.8 | 12.3 | 31.9 | 30.8 | > 100 | 19.7 | 49.6 |
| COc1cc2c3c(n(C)c(=O)c2cc1OC)-c1cc2c(cc1/C3=C\CCCN)OCO2 | 1.65 | 6.25 | 0.325 | 3.64 | 16.6 | 45 | 5.57 | 54.1 | 15.5 | 38.9 | 3.95 | 42.8 | 2.49 | 18.2 | 4.64 | 25.2 | 13.8 | 29.8 | 8.6 | 41.6 |
| OCc1ccc(-c2ccc(-c3ccc(CO)s3)o2)s1 | – | > 85.8 | – | 71.5 | – | 89.2 | – | 66.5 | – | 50.7 | – | 2.59 | – | 0.0278 | – | 45.2 | – | 0.791 | – | 17.3 |
| N=Nc1c(OC(=O)Nc2cccc(Cl)c2)[nH]c2ccccc12 | – | 32.6 | – | 25.8 | – | 24.4 | – | 20.3 | – | 20.1 | – | 23.5 | – | 26.1 | – | 14.1 | – | 6.6 | – | 21.3 |
| CCCCCCCC(=O)SCC/C=C/[C@@H]1CC(=O)NCc2cc(ccn2)C2=N[C@@](C)(CS2)C(=O)N[C@@H](C(C)C)C(=O)O1 | 0.0203 | > 33.3 | 0.0133 | > 28.7 | 0.015 | 0.595 | 0.0138 | > 33.3 | 0.0432 | > 33.3 | 0.0377 | > 33.3 | 0.00591 | 0.0418 | 0.00468 | 0.0466 | 0.0362 | 0.362 | 0.0115 | – |
| Cc1cc(/C=C/c2ccc3cc(N(C)C)ccc3[n+]2C)c(C)n1-c1ccccc1 | 0.336 | 2.47 | 0.193 | 2.52 | 0.27 | 1.06 | 0.175 | 0.846 | 0.159 | 1.09 | 0.169 | 3.37 | 0.286 | 2.23 | 0.0908 | 2.69 | 0.197 | 1.42 | 0.177 | 0.8 |
| COc1ccc(-c2nnc(COc3ccc(NC(=O)Nc4cc(C(F)(F)F)cc(C(F)(F)F)c4)cc3F)o2)cc1 | 2.09 | 5.28 | 2.68 | 14.1 | 2.66 | 5.82 | 2.15 | 4.84 | 2.54 | 6.05 | 2 | 5.04 | 1.56 | 5.03 | 1.63 | 3.98 | 1.5 | 4.66 | 2.11 | 5 |
| Cc1ccccc1S(=O)(=O)OC1NS(=O)(=O)c2ccccc21 (centres undefined) | – | > 100 | – | > 100 | – | > 100 | – | > 100 | – | > 100 | – | > 100 | – | > 100 | – | > 100 | – | > 100 | – | > 100 |
| O=C(Nc1ccc(Cl)cc1)c1cccc(NC2=C(Cl)C(=O)N(Cc3ccccc3)C2=O)c1 | 4.18 | 19.1 | 12.1 | 24.5 | 14.9 | 41.5 | 6.39 | 19.7 | 2.16 | 13.2 | 10.3 | 42.3 | 19.9 | 47.1 | 6.29 | 19.7 | 8.04 | 47 | 23.9 | > 100 |

From PubChem BioAssay (NCI)
